These results are taken from US20120146009A1, “NOVEL COMPOUND, FIELD-EFFECTIVE TRANSISTOR, SOLAR CELL, METHOD FOR PRODUCING SAID COMPOUND, FIELD-EFFECTIVE TRANSISTOR, AND SOLAR CELL, COMPOSITION FOR ORGANIC SEMICONDUCTOR LAYER, AND COMPOSITION FOR P-TYPE SEMICONDUCTOR LAYER” (Sharp Kabushiki Kaisha, priority 2009, published 2012).

Like-named read-outs stand apart in the source and are kept apart here.

The conditions of data set [1]: same condition, left for 24 hours, Reference Document 1; cited from earlier work.
The conditions of data set [2]: from Reference Document 1; cited from earlier work.
The conditions of data set [3]: from Reference Document 2; cited from earlier work.
For data set [4] the following is noted: background statement; cited from earlier work.
Data set [5] is described as follows: Absorption spectrum in CH2Cl2. The format is physicochemical. As to the method:
(§1) An absorption spectrum (absorption peak wavelength λmax, molar absorbance coefficient c) of Compound 1 thus synthesized was measured. Further, a HOMO level (ionization potential) of Compound 1 was measured by photoelectric spectroscopy in the atmosphere (SC-2).
(§2) Note that, for the result of pentacene shown in Table 2, the absorption spectrum described in Reference Document 1 (J. Am. Chem. Soc. 2007, 129, 2225) was used, and the HOMO level described in Reference Document 2 (Jpn. J. Appl. Phys. 2005, 44, 561) was used.

Data set [6] can be described thus: HOMO level (ionization potential) by photoelectric spectroscopy in the atmosphere. The format is physicochemical. As to the method: as §1, §2
Data set [7] can be described thus: Stability against aerial oxidation (absorption intensity of solution in air-saturated methylene chloride, dark place). To be noted: immediately after preparation to 1 week. It is filed as physicochemical. As to the method:
Next, stability of Compound 1 against aerial oxidation was evaluated. A solution of Compound 1 was prepared with the use of air-saturated methylene chloride as a solvent, and was left in a dark place. The absorption spectrum was measured during a time period from immediately after the preparation to 1 week after the preparation, so as to trace how an absorption intensity of the solution of Compound 1 was changed during the above time period (see Reference Document 1 described above).

Another data set can be described thus: Solubility in solvent. It is filed as physicochemical.
Data set [8] in a line: Properties of the isolated crystal in the atmosphere. It is filed as physicochemical. To be noted: yellow crystal. How it is done:
Into an anhydrous DMF (15 ml) solution of Intermediate 1 (0.42 g, 1.5 mmol), sodium hydride (60%, 0.13 g, 3.1 mmol) was added little by little. The resultant solution was left at room temperature for 2 hours. After that, 1-bromohexane (0.5 g, 3 mmol) was added to the solution, and the solution was agitated for further 2 hours. A solvent was removed away under reduced pressure, and a residue was extracted with methylene chloride. The residue from which the solvent was distilled away was recrystallized from hexane so that 0.28 g of Compound 1 was obtained (yield: 41%).

Turning to `c1ccc2cc3cc4cc5ccccc5cc4cc3cc2c1` [Pentacene, pentacene], the “Change in absorption intensity of solution” value in data set [1] is reported as “absorption intensity was substantially eliminated”. The “Absorption spectrum λ max” value in [2] is listed as 575 nm. Moreover, the “Photoelectric spectroscopy HOMO” value in data set [3] was −5.0 eV.

Consider `c1ccc2cc3c(cc2c1)Nc1cc2ccccc2cc1N3` [DHDAP, dihydrodiazapentacene], for which, in data set [4], the Solubility result was “low in solubility”.

On to `CCCCCCN1c2cc3ccccc3cc2N(CCCCCC)c2cc3ccccc3cc21` [Compound 1], for which the “Absorption spectrum λ max” value in [5] (in CH2CL2) stood at 422 nm. Besides, in data set [5] (in CH2CL2, at λ max), the “Absorption spectrum log ε” value is recorded as “(log ε = 4.58)”. The “Photoelectric spectroscopy HOMO” value in [6] is −4.89 eV. Also, in [7], the “Change in absorption intensity of solution” value is on record as “no change in absorption intensity”. Moreover, the “Resolvability with respect to a solvent” value in “Solubility in solvent” is on record as “excellent resolvability”. Moreover, in [8], the Hydroscopic property result was “no hydroscopic property” and the “Stability in the atmosphere” value is reported as “stable compound without any deterioration in the atmosphere”.
